# Measured values published in patent US8409166B2, “Method for pressure mediated selective delivery of therapeutic substances and cannula” (The United States of America as represented by the …, priority 1998, dated 2013).
# Columns and labels:
# [1] = test system: interhepatocyte tight junctions; experiment: Retrograde biliary infusion of lanthanum chloride, electron microscopy of intrahepatic distribution; format: in vivo, mice; settings: 720 μl of 5 mM at 2 or 8 μl/second
# Experimental: Movement of fluid from the intralumenal space may conceivably occur either directly across physically opened tight junctions or indirectly by altered rates of transepithilial transcytosis. […] The ability of retrograde biliary infusion to disrupt tight junctions was evaluated by qualitative ultrastructural examination of the intrahepatic distribution of lanthanum chloride, a heavy metal normally impermeant to structurally intact tight junctions.
# Animals were infused retrograde with either 5 mM lanthanum chloride (Sigma) or 0.9% NaCl vehicle. Three infusions of 240 μl volume were administered per animal at a rate of 2 or 8 μl/second, with a 10 second pause between infusions. Freshly removed tissue was fixed overnight in 2% glutaraldehyde in 0.2 M cacodylate buffer. Following standard processing and embedding, 0.5 micrometer thick sections were stained with uranyl acetate and lead citrate. Sections were then examined using a Philips 201 Electron Microscope.
# [2] = test system: urinary bladder epithelial cell tight junctions; experiment: Intralumenal delivery to the rabbit urinary bladder (electron and fluorescent microscopy); format: in vivo, Dutch Belted Rabbits; settings: 5 mM, 10 minutes
# Description: As an experimental model to mimic retrourethral delivery, male Dutch Belted Rabbits (1-2 Kg BW) had PE-50 tubing placed in the lumen of each […] and advanced so that the tips were within the lumen of the urinary bladder. One ureteral catheter was connected to a pressure transducer and used for recording intralumenal pressure. The other ureteral catheter was connected to a microinfusion pump. Microvascular clips were placed on the ureters to prevent retrograde reflux. The urethra was occluded using a vascular loop. 5 mM Lanthanum Chloride was infused so that the intralumenal pressure was either 25 mm Hg or 50 mm Hg.
# Tissues were removed 10 minutes later and processed for electron microscopy. […] Following the administration of 200 nm fluorescent latex microspheres at 50 mm-[…] intralumenal pressure, the urinary bladder was removed and processed for fresh-frozen sections.
# [3] = test system: intrahepatic tight junctions; experiment: Constant pressure retrograde biliary infusion in mice (flow rate, resistance, paracellular leakage); settings: for Ave Counts (paracellular leakage): Cholestatic 04 day mice
# Description: FIG. 35 is a diagram of a working example of a system for constant-pressure intralumenal delivery. […] A working model was regulated using an adaptation of a Cole-Palmer pressure controller. Infusion fluid from the reservoir flows through capillary glass tubes 224 on its way to an infusion line 226. Flow rates may then be determined by tracking air bubbles 228 in the capillary glass tubes 224 with a ruler 229. A pressure sensor 230 detects the pressure of the infusion fluid at a location near the infusion line 226.
# To set up the system, fluid was added to the reservoir, and the system was rinsed and filled with fluid. The infusion line 226 was then surgically placed into the animal's organ. […] By adjusting the controller setting the desired pressure could be obtained at the pressure sensor, which was kept at the same height (z=0) as the animal. The reading at the pressure sensor was thus equal to the applied pressure (the pump pressure) plus the pressure head (the pressure increase due to the change in height between the top of the liquid level in the reservoir and the height of the infusion line). The infusion line was kept at the same height as the pressure sensor and the animal on the operating table. Alternate systems could be of course be adapted in which a constant pressure is maintained at the pressure sensor and not at the top of the Reservoir. This would be most important when a large volume of fluid is infused.
# The flow rate of infusion fluid was experimentally recorded in the following way: the cross sectional area of the bubble tube was determined by injecting a known volume of water (from syringe 232) into a measured length of the bubble tube. The cross sectional area was 0.0233 cm^2 (0.35 cc in 15 cm). When the flow started, an air bubble was slowly injected into the infusion fluid flow. The bubble then traveled down the bubble tube. At the end of the tube, the bubble would rise up into the bubble trap 234 and displace an equal volume of liquid. For each bubble 25 time points were recorded, on 1-cm intervals of ruler 229. The time versus distance that the bubble had traveled could be plotted and the slope of this line was the velocity of the bubble. Multiplying the slope by the cross sectional area of the bubble tube gave the average flow rate of the infusion fluid. This method of flow rate measurement is a working and experimental model for the purpose of illustration. In practice, flow rates may also be determined by ultrasonic or other methods known to those of skill in the art.
# Constant pressure infusion was evaluated in mice using the retrograde biliary infusion setup described previously. The constant pressure device was substituted for the microinfusion pump. […] Infusion flow rates were recorded using the bubble tube method described above. Blood samples were obtained and evaluated as described above.
# Solutes evaluated included sucrose (molecular weight 370), inulin (molecular weight 5,200), and Dextran (molecular weight 70,000).
# [4] = constant pressure retrograde biliary infusion
molecule,measurement,setting,value
[Cl][La]([Cl])[Cl] [lanthanum chloride],electron dense deposits at bile ducts,[1],found within bile ducts but not in their adjacent subepithelial tissue compartments
same,electron dense deposits at canaliculi and subepithelial compartments,[1],"within biliary canaliculi, interhepatocyte cell spaces, and the perisinusoidal Space of Disse"
same,electron microscopy finding in urinary bladder,[2]; intralumenal pressure 25 mm Hg,electron dense deposits were detected in the intercellular spaces between epithelial cells
same,electron microscopy finding in urinary bladder,[2]; intralumenal pressure 50 mm Hg,some evidence of patchy epithelial denudation
Dextran,appearance in systemic bloodstream,[3]; [4],detected in the systemic bloodstream
OC[C@H]1O[C@@](CO)(O[C@H]2O[C@H](CO)[C@@H](O)[C@H](O)[C@H]2O)[C@@H](O)[C@@H]1O [[14C]-sucrose],appearance in systemic bloodstream,"[3]; mouse, in vivo",detected in the systemic bloodstream
[14C]-inulin,Ave Counts (paracellular leakage),[3]; 10 mmHg,27
same,Ave Counts (paracellular leakage),[3]; 20 mmHg,2534
same,Ave Counts (paracellular leakage),[3]; 40 mmHg,20134
same,appearance in systemic bloodstream,[3]; [4],detected in the systemic bloodstream
